# Data from publication PMC8374649, “IBI362 (LY3305677), a weekly-dose GLP-1 and glucagon receptor dual agonist, in Chinese adults with overweight or obesity: A randomised, placebo-controlled, multiple ascending dose phase 1b study” (EClinicalMedicine, 2021).
# System: Chinese adults with overweight or obesity
# Assay: Safety and tolerability (treatment emergent adverse events), multiple ascending dose phase 1b study
# Format: in vivo, human
# Experimental: The study included a 3-week screening period, a 12-week treatment period and an 8-week safety follow-up period. During the 12-week treatment period, the dose of IBI362 or placebo was escalated within each cohort according to one of the three dose-escalation schedules (Fig. S1). The dose-escalation regimen for the 3.0 mg cohort was 1.0 mg for 4 weeks, followed by 2.0 mg for 4 weeks and then 3.0 mg for the final 4 weeks. The dose-escalation regimen for the 4.5 mg cohort was 1.5 mg for 4 weeks, followed by 3.0 mg for 4 weeks and then 4.5 mg for the final 4 weeks. The dose-escalation regimen for the 6.0 mg cohort was 2.0 mg for 4 weeks, followed by 4.0 mg for 4 weeks and then 6.0 mg for the final 4 weeks. The 6.0 mg cohort started dosing after tolerability evaluation of 1.5 mg dosing in the 4.5 mg cohort. The internal unblinded safety monitoring group was responsible for the safety monitoring. All treatments were subcutaneously administered once a week. Investigators and authorized study personnel in each centre recorded the study data into the electronic case report forms (eCRFs), which were reviewed and validated by clinical research associates (CRAs). The data in the eCRFs were submitted to the electronic data capture (EDC) database. HbA1c, fasting plasma glucose and fasting insulin tests were performed in a central lab (Wuxi AppTec Inc.).
# The primary endpoints of the study were safety and tolerability of IBI362. Adverse events (AEs) were categorised according to the Medical Dictionary for Regulatory Activities system organ class and preferred terms. Treatment emergent adverse events (TEAEs) and serious adverse events were monitored in all participants throughout the treatment period and the safety follow-up period. The severity of the AEs (mild, moderate or severe) and the association between an AE and the study drug was assessed by investigators based on pre-specified criteria.
# Safety analyses were done in the safety population (defined as all participants who received at least one dose of the study treatment). Pharmacokinetic analyses were done in the pharmacokinetic population (defined as all participants who received at least one dose of IBI362 and had at least one valid plasma concentration assessment). Pharmacodynamic analyses were done in the pharmacodynamic population (defined as all participants who received at least one dose of the study treatment and had baseline and at least one valid assessment). Efficacy analyses were done in the efficacy population (defined as all participants who received at least one dose of the study treatment and had at least one post-baseline assessment).
# [1] = 4.5 mg cohort (1.5-3.0-4.5 mg sc once weekly, 4 weeks each), n = 8
# [2] = 6.0 mg cohort (2.0-4.0-6.0 mg sc once weekly, 4 weeks each), n = 8
smiles,measurement,setting,value
CC(C)C[C@H](NC(=O)[C@H](CC(C)C)NC(=O)[C@H](Cc1c[nH]c2ccccc12)NC(=O)[C@H](CCC(=O)O)NC(=O)[C@@H](NC(=O)[C@H](Cc1ccccc1)NC(=O)[C@H](CCC(=O)O)NC(=O)[C@H](CCCCNC(=O)COCCOCCNC(=O)COCCOCCNC(=O)CC[C@H](NC(=O)CCCCCCCCCCCCCCCCCCC(=O)O)C(=O)O)NC(=O)[C@H](C)NC(=O)[C@H](CCCCN)NC(=O)[C@H](CCCCN)NC(=O)[C@H](CCC(=O)O)NC(=O)[C@H](CC(=O)O)NC(=O)[C@H](CC(C)C)NC(=O)[C@H](Cc1ccc(O)cc1)NC(=O)[C@H](CCCCN)NC(=O)[C@H](CO)NC(=O)[C@H](Cc1ccc(O)cc1)NC(=O)[C@H](CC(=O)O)NC(=O)[C@H](CO)NC(=O)[C@@H](NC(=O)[C@H](Cc1ccccc1)NC(=O)[C@@H](NC(=O)CNC(=O)[C@H](CCC(N)=O)NC(=O)C(C)(C)NC(=O)[C@@H](N)Cc1c[nH]cn1)[C@@H](C)O)[C@@H](C)O)C(C)C)C(=O)N[C@@H](CCC(=O)O)C(=O)NCC(=O)NCC(=O)N1CCC[C@H]1C(=O)N[C@@H](CO)C(=O)N[C@@H](CO)C(=O)NCC(N)=O [IBI362],Myocardial ischemia,[1],1 (12.5) n (%)
same,Nasopharyngitis,[1],0 n (%)
same,Nausea,[1],3 (37.5) n (%)
same,Neutrophil count increased,[1],1 (12.5) n (%)
same,Oropharyngeal pain,[1],1 (12.5) n (%)
same,Proteinuria,[1],2 (25.0) n (%)
same,Psychiatric disorders (system organ class),[1],1 (12.5) n (%)
same,Pyrexia,[1],0 n (%)
same,Renal and urinary disorders (system organ class),[1],2 (25.0) n (%)
same,Reproductive system and breast disorders (system organ class),[1],0 n (%)
same,"Respiratory, thoracic and mediastinal disorders (system organ class)",[1],1 (12.5) n (%)
same,Serious adverse event,[1],0 n (%)
same,Sinus tachycardia,[1],1 (12.5) n (%)
same,Skin and subcutaneous tissue disorders (system organ class),[1],0 n (%)
same,Soft tissue injury,[1],0 n (%)
same,Starvation,[1],0 n (%)
same,TEAE (individuals with ≥ 1 TEAE),[1],7 (87.5) n (%)
same,Thermal burn,[1],1 (12.5) n (%)
same,Tonsillitis,[1],0 n (%)
same,Treatment-related AE,[1],7 (87.5) n (%)
same,Upper respiratory tract infection,[1],2 (25.0) n (%)
same,Urticaria,[1],0 n (%)
same,Vomiting,[1],0 n (%)
same,White blood cell count increased,[1],1 (12.5) n (%)
same,Abdominal distension,[2],0 n (%)
same,Abdominal pain,[2],0 n (%)
same,Atrioventricular block first degree,[2],0 n (%)
same,Back pain,[2],0 n (%)
same,Blood glucose increased,[2],0 n (%)
same,Calculus urinary,[2],0 n (%)
same,Cardiac disorders (system organ class),[2],0 n (%)
same,Constipation,[2],0 n (%)
same,Decreased appetite,[2],1 (12.5) n (%)
same,Diarrhea,[2],3 (37.5) n (%)
same,Dry mouth,[2],0 n (%)
same,Dyslipidaemia,[2],0 n (%)
same,Dysmenorrhoea,[2],0 n (%)
same,Dyspepsia,[2],1 (12.5) n (%)
same,Fatigue,[2],0 n (%)
same,Folliculitis,[2],1 (12.5) n (%)
same,Gastrointestinal AE,[2],4 (50.0) n (%)
same,"Gastrointestinal AE, Mild",[2],3 (37.5) n (%)
same,"Gastrointestinal AE, Moderate",[2],1 (12.5) n (%)
same,Gastrointestinal disorders (system organ class),[2],4 (50.0) n (%)
same,Gastrointestinal inflammation,[2],0 n (%)
same,General disorders and administration site conditions (system organ class),[2],0 n (%)
same,Hiccups,[2],1 (12.5) n (%)
same,Hyperlipidaemia,[2],0 n (%)
same,Hyperuricaemia,[2],1 (12.5) n (%)
same,Hypoglycaemia event,[2],0 n (%)
same,Infections and infestations (system organ class),[2],1 (12.5) n (%)
same,"Injury, poisoning and procedural complications (system organ class)",[2],0 n (%)
same,Investigations (system organ class),[2],0 n (%)
same,Menstruation irregular,[2],0 n (%)
same,Mental fatigue,[2],0 n (%)
same,Metabolism and nutrition disorders (system organ class),[2],3 (37.5) n (%)
same,Mouth ulceration,[2],0 n (%)
same,Musculoskeletal and connective tissue disorders (system organ class),[2],0 n (%)
same,Myocardial ischemia,[2],0 n (%)
same,Nasopharyngitis,[2],0 n (%)
same,Nausea,[2],1 (12.5) n (%)
same,Neutrophil count increased,[2],0 n (%)
same,Oropharyngeal pain,[2],0 n (%)
same,Proteinuria,[2],0 n (%)
same,Psychiatric disorders (system organ class),[2],0 n (%)
same,Pyrexia,[2],0 n (%)
same,Renal and urinary disorders (system organ class),[2],0 n (%)
same,Reproductive system and breast disorders (system organ class),[2],0 n (%)
same,"Respiratory, thoracic and mediastinal disorders (system organ class)",[2],1 (12.5) n (%)
same,Serious adverse event,[2],0 n (%)
same,Sinus tachycardia,[2],0 n (%)
same,Skin and subcutaneous tissue disorders (system organ class),[2],0 n (%)
same,Soft tissue injury,[2],0 n (%)
same,Starvation,[2],1 (12.5) n (%)
same,TEAE (individuals with ≥ 1 TEAE),[2],6 (75.0) n (%)
same,Thermal burn,[2],0 n (%)
same,Tonsillitis,[2],0 n (%)
same,Treatment-related AE,[2],5 (62.5) n (%)
same,Upper respiratory tract infection,[2],0 n (%)
same,Urticaria,[2],0 n (%)
same,Vomiting,[2],1 (12.5) n (%)
same,White blood cell count increased,[2],0 n (%)
same,Magnitude of heart rate increase,"12-lead ECG, first 6 weeks, more prominent later, especially 6.0 mg cohort, declining from week 9 (Fig. S3)",mild
same,"Amylase, lipase and calcitonin levels",all IBI362 treatment groups (Fig S4),increased in all IBI362 treatment groups but remained mostly within the normal reference range
same,Discontinuation of the study due to safety reason,all cohorts,No participant discontinued the study due to safety reason
same,Hypoglycaemia event or serious adverse event,all cohorts,No hypoglycaemia event or serious adverse event occurred
same,Investigator suspected pancreatitis,all cohorts,No investigator suspected pancreatitis was reported
same,Participants with at least one TEAE,"all participants receiving IBI362 (n = 24), 19 participants",79.2%
same,Nausea,"all participants receiving IBI362 (n = 24), four participants",16.7%
same,Decreased appetite,"all participants receiving IBI362 (n = 24), seven participants",29.2%
same,Diarrhea,"all participants receiving IBI362 (n = 24), six participants",25.0%
